In patent publication US9127016B2, “Small molecule inhibitors of Dusp6 and uses therefor” (University of Pittsburgh—Of the Commonwealth System of …, priority 2009, dated 2015):

Columns and labels:
zebrafish embryo = experiment: Zebrafish embryo survival after prolonged exposure; format: in vivo
Description: We next addressed if BCI and related analogs are detrimental to zebrafish embryo survival after prolong exposure. […] The percentage of embryos that died after 24 hours treatment was 100% at 20 μM.

Dusp6 = molecular target: T1, Dusp6 (Danio rerio, UniProt Q7T2L8); experiment: Zebrafish mRNA microinjection, rescue of sef expression, dusp6; format: in vivo; conditions: 5 μM BCI, shield stage
T1 construct: expressed in transfected cells; host or cells: zebrafish embryos, 500 pg mRNA injected at the 1-2 cell stage
T1 sequence (Q7T2L8 1-382): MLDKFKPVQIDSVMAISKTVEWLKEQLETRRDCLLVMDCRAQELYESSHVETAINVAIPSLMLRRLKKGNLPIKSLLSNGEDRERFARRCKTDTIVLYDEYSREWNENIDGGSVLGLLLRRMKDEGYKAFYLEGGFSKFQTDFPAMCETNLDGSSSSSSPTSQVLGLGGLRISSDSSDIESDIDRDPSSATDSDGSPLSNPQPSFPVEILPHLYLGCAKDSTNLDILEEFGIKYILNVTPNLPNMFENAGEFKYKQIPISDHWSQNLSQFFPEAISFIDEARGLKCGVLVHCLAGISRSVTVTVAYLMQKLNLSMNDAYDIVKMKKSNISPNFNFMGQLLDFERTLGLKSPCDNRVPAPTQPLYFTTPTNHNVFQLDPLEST
Description: (§1) dusp6 and XFD mRNA for microinjection studies were generated as previously described (Tsang, M. et al. Development 131, 2769-79 (2004)). Both Dusp5 and Spry4 ORFs were amplified by RT-PCR from 24 hpf zebrafish with the following primers: […]
(§2) Amplified PCR products were subcloned into pCS2+, sequenced verified and mRNAs were synthesized as described previously. Embryos were injected with 500 pg mRNA at the 1-2 cell stage, treated with 5 μM BCI at the 1000-cell stage and fixed at shield stage for in situ hybridization.
(§3) In situ hybridization experiments were carried out as described previously (Kudoh, T. et al. Genome Res 11, 1979-87 (2001)). The probes eng3, krox20, sef, dusp6, gata4, nkx2.5, cmlc2, vmhc, scl, etsrp and hand2 were generated with a RNA labeling kit (Roche) (Tsang, M. et al. Development 131, 2769-79 (2004); Chen, J. N. et al. Development 122, 3809-16 (1996); Ekker, M., et al. Development 116, 1001-10 (1992); Liao, E. C. et al. Genes Dev 12, 621-6 (1998); Oxtoby, E. et al. Nucleic Acids Res 21, 1087-95 (1993); Pham, V. N. et al. Dev Biol 303, 772-83 (2007); Tsang, M., et al. Nat Cell Biol 4, 165-9 (2002); Yelon, D., et al. Dev Biol 214, 23-37 (1999); and Yelon, D. et al. Development 127, 2573-82 (2000)). The double fluorescent in situ hybridization protocol was described by Schoenbeck et al. (Dev Cell 13, 254-67 (2007)). […]

ERK2-stimulated Dusp6 = molecular target: T2, ERK2-stimulated Dusp6 (Homo sapiens, UniProt Q16828); experiment: ERK2-induced activation of Dusp6, OMFP dephosphorylation; format: biochemical; conditions: BCI 100 μM
T2 construct: His; made in house
T2 sequence (Q16828 whole entry): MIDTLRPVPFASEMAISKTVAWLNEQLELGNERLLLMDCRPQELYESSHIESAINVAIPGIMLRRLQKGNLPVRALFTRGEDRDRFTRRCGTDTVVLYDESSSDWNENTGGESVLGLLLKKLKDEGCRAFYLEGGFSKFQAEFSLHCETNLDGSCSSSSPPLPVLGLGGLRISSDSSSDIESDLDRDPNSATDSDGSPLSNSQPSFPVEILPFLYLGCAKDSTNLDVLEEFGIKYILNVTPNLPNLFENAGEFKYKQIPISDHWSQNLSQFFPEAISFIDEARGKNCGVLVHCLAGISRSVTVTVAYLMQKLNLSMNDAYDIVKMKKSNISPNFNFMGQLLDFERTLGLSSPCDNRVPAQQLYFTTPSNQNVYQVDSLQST
T2 sequence (P28482 whole entry partner): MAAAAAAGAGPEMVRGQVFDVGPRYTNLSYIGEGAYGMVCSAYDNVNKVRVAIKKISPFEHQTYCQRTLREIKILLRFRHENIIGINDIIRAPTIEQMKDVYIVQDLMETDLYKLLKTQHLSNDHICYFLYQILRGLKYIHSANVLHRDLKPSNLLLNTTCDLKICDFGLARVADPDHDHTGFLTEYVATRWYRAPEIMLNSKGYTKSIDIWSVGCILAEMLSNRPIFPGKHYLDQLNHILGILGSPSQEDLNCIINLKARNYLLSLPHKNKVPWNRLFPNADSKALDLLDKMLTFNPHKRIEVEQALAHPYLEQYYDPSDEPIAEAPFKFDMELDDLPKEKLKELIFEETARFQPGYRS
Description: For OMFP based ERK2 induced activation of Dusp6, recombinant His-tagged Dusp6 was expressed from a bacterial expression vector and 250 ng were incubated with the indicated concentrations of NSC95397 or BCI. OMFP was added at its apparent Km (100 μM) (Vogt, A. et al. J Biol Chem 280, 19078-86 (2005)). The final reaction volume was 15 μl. After 1 h at RT, OMF fluorescence was measured on an M5 multimode reader (Molecular Devices) at excitation/emission wavelengths of 485/525 nm. To assay activated Dusp6, 210 ng or 2.1 μg of recombinant ERK2 (Cell signaling) were added to Dusp6(210 ng)/BCI(100 μM) mixtures to measure activation at 1:1 and 1:10 ratio of substrate to enzyme. OMFP was immediately added and fluorescence (ex485/em525 nm) was read every 10 min for 130 min. Fold activation was calculated at 60 mins in each experiment.

[1] = system: FGF target genes sef and spry4; experiment: Semi-quantitative RT-PCR of FGF target genes in treated embryos; format: in vivo, zebrafish; conditions: 24 hpf, 6 hours, 10 μM and 20 μM, n=3
Description: Zebrafish embryos were treated at 24 hpf for 6 hours with BCI at 10 μM and 20 μM followed by total RNA extraction with Trizol (Invitrogen). cDNA synthesis with SuperScript II Reverse Transcriptase (Invitrogen) was performed as described by manufacture's protocol and by Tsang et al. 17. For PCR reaction, HotMaster Taq (Eppendorf) was used with the following primers: […]
Cycle conditions were: 94° C. 30 sec, 55° C. 45 sec, 72° C. 40 sec, for 25 cycles. PCR products were resolved on 3% agarose gels.

[2] = system: FGF signaling (Tg(Dusp6:dsEGFP) reporter); experiment: Dose response of GFP expression in Tg(Dusp6:dsEGFP) embryos, automated imaging; format: in vivo, zebrafish; conditions: Danio rerio; treated at 24 hpf, 6 hours; read-out: EC50, GFP expression in transgenic embryos
Description: We tested a series of structurally related analogs of BCI in an in vivo assay. As described in Molina et al. (Nature Chemical Biology, 2009), Tg(Dusp6:dsEGFP) embryos were treated at 24 hours post fertilization with increasing doses of compounds. After 6 hours treatment, embryos were imaged by the IXU ImageXpress (Molecular Devices), and images were processed by Definiens Software. The software identified bright head structures and measured fluorescence.
Under similar conditions, BCI-related analogs were tested and EC50 values measured.

Dusp5 = experiment: Zebrafish mRNA microinjection, rescue of sef expression, dusp5; format: in vivo; conditions: 5 μM BCI, shield stage
Description: as §1, §2, §3

[3] = system: XFD (dominant negative FGF receptor); experiment: Zebrafish mRNA microinjection, rescue of sef expression, XFD; format: in vivo; conditions: 5 μM BCI, shield stage
Description: as §1, §2, §3

Spry4 = experiment: Zebrafish mRNA microinjection, rescue of sef expression, spry4; format: in vivo; conditions: 5 μM BCI, shield stage
Description: as §1, §2, §3

Q: For `O=C1/C(=C/c2ccccc2)C(NC2CCCCC2)c2ccccc21` (stereo not shown) [Compound 3, (E)-2-benzylidene-3-(cyclohexylamino)-2,3-dihydro-1H-inden-1-one], which “percentage of embryos that died after 24 hours treatment” value (zebrafish embryo; 20 μM, 24 hours) is on record?
A: Its value is 100%.

Q: And the “effect of prolonged exposure on embryos” value (zebrafish embryo; high doses (>10 μM) for 24 hours)?
A: Its value is “embryo defects, such as tail necrosis and even death”.

Q: What about the “sef expression in dusp6-injected embryos” value (Dusp6) of the same compound?
A: Its value is “rescued sef expression to control levels or higher”.

Q: What about the “inhibition of ERK2-stimulated Dusp6 dephosphorylation of OMFP” value (ERK2-stimulated Dusp6; ERK2 three-fold stimulation (1:1)) of the same compound?
A: Its value is 57%.

Q: And the “inhibition of ERK2-stimulated Dusp6 dephosphorylation of OMFP” value (ERK2-stimulated Dusp6; ratio of ERK2 to Dusp6 10:1, 7-fold enhancement)?
A: The value was 30%.

Q: What about the “expression of sef and spry4” value [1] of the same compound?
A: Its value is “increase”.

Q: What about the EC50 [2] of the same compound?
A: The EC50 was 11.4 µM.

Q: And the “reversal of phenotype caused by Dusp5 over-expression” value (Dusp5)?
A: Its value is “little or no effect”.

Q: What about the “reversal of effects of XFD mRNA on sef expression” value [3] of the same compound?
A: Its value is “did not reverse”.

Q: What about the “reversal of effects of spry4 mRNA on sef expression” value (Spry4) of the same compound?
A: Its value is “did not reverse”.
